# In paper PMC7036753, “Lipidated Analogs of the LL-37-Derived Peptide Fragment KR12—Structural Analysis, Surface-Active Properties and Antimicrobial Activity” (International Journal of Molecular Sciences, 2020):
# Peptide text beside a SMILES is read from it. * marks the point of attachment. Bz = O=C(c1ccccc1)*
# Experiments:
# [1] = tested on: K. pneumoniae ATCC 700603; type: cell-based, Klebsiella pneumoniae; settings: K. pneumoniae ATCC 700603; Mueller-Hinton Broth, 18 h
# Method: (§1) Examination of antimicrobial activity of the test compounds was conducted on reference strains of bacteria assigned to ESKAPE group of pathogens: Enterococcus faecium ATCC 700221, Klebsiella pneumoniae ATCC 700603, Acinetobacter baumannii ATCC BAA-1605, Pseudomonas aeruginosa ATCC 9027, Klebsiella aerogenes ATCC 13048 (formerly Enterobacter aerogenes) and reference strains of Staphylococcus aureus, namely: S. aureus ATCC 25923, S. aureus ATCC 6538, S. aureus ATCC 33591 (MRSA), S. aureus ATCC 9144 and S. aureus ATCC 12598. All the strains were stored at −80 °C in Roti®-Store cryo vials (Carl Roth GmbH, Karlsruhe, Germany) and before the tests were transferred into fresh Mueller-Hinton Medium (BioMaxima, Lublin, Poland) and incubated for 24 h at 37 °C. Subsequently, each bacterial inoculum was seeded on Mueller-Hinton Agar plates (BioMaxima) and incubated again for 24 h. The cultures prepared in this way were used in further antimicrobial assays and prepared as described above. The MIC values were determined by the broth microdilution method according to Clinical and Laboratory Standards Institute Protocol. For this purpose, initial inoculums of bacteria (0.5 × 10^5 colony forming unit (CFU)/mL) in Mueller–Hinton Broth were exposed to the ranging concentrations of compounds (0.5–256 µg/mL) and incubated for 18 h at 37 °C. The experiments were conducted on 96-well microtiter plates, with a final volume of 100 µL. Cell densities were adjusted spectrophotometrically (Multiskan™ GO Microplate Spectrophotometer, Thermo Scientific) at 600 nm. The MICs were taken as the lowest drug concentration at which a visible growth of microorganisms was inhibited. All experiments were conducted in triplicate and included positive (growth) and negative (sterility) controls.
# S. aureus ATCC 12598 = type: cell-based, Staphylococcus aureus; settings: S. aureus ATCC 12598; Mueller-Hinton Broth, 18 h
# Method: as §1
# S. aureus ATCC 25923 = type: cell-based, Staphylococcus aureus; settings: S. aureus ATCC 25923; Mueller-Hinton Broth, 18 h
# Method: as §1
# [2] = tested on: S. aureus ATCC 33591 (MRSA); type: cell-based, Staphylococcus aureus; settings: S. aureus ATCC 33591 (MRSA); Mueller-Hinton Broth, 18 h
# Method: as §1
# S. aureus ATCC 6538 = type: cell-based, Staphylococcus aureus; settings: S. aureus ATCC 6538; Mueller-Hinton Broth, 18 h
# Method: as §1
# S. aureus ATCC 9144 = type: cell-based, Staphylococcus aureus; settings: S. aureus ATCC 9144; Mueller-Hinton Broth, 18 h
# Method: as §1
# [3] = tested on: S. aureus ATCC 12598 biofilm; type: cell-based, Staphylococcus aureus; settings: S. aureus ATCC 12598 biofilm, 24 h
# [4] = tested on: S. aureus ATCC 25923 biofilm; type: cell-based, Staphylococcus aureus; settings: S. aureus ATCC 25923 biofilm, 24 h
# [5] = tested on: S. aureus ATCC 33591 (MRSA) biofilm; type: cell-based, Staphylococcus aureus; settings: S. aureus ATCC 33591 biofilm, 24 h
# [6] = tested on: human red blood cells (hRBCs); experiment: Hemolysis assay; type: cell-based; settings: concentration range 0.5–256 μg/mL
# Method: Then the stock RBCs solution was added up to a final volume of 100 μL with a 4% concentration of erythrocytes (v/v). The control wells for 0 and 100% hemolysis were also prepared. They consisted of RBCs suspended in PBS and 1% of Triton-X 100, respectively.
smiles,measurement,setting,value
"CC[C@H](C)[C@H](NC(=O)[C@H](CCCNC(=N)N)NC(=O)[C@H](CCC(N)=O)NC(=O)[C@@H](NC(=O)[C@@H](NC(=O)[C@H](CCCNC(=N)N)NC(=O)[C@H](CCCCN)NC(=O)c1ccccc1)[C@@H](C)CC)C(C)C)C(=O)N[C@@H](CCCCN)C(=O)N[C@@H](CC(=O)O)C(=O)N[C@@H](Cc1ccccc1)C(=O)N[C@@H](CC(C)C)C(=O)N[C@@H](CCCNC(=N)N)C(N)=O [VIII, Benzoic acid-KR12-NH2] (Bz-KRIVQRIKDFLR-NH2)",MIC,[1],16 µg/mL
same,MIC,S. aureus ATCC 12598,16 µg/mL
same,MIC,S. aureus ATCC 25923,32 µg/mL
same,MIC,[2],32 µg/mL
same,MIC,S. aureus ATCC 6538,8 µg/mL
same,MIC,S. aureus ATCC 9144,16 µg/mL
same,MBEC,[3],16 µg/mL
same,MBEC,[4],64 µg/mL
same,MBEC,[5],32 µg/mL
same,hemolysis of hRBCs,[6],did not cause hemolysis
